The source of these data is US20240109917A1 (ACTELION PHARMACEUTICALS LTD, priority 2020, published 2024).

The target in experiment [1] is Tb-labeled inactive PDGFRβ (Homo sapiens (Human), UniProt P09619). The experiment in a line: PDGFRβ LanthaScreen Assay. Type of experiment: binding. The settings on record: read-out: PDGFR Lantha IC50. On the technique in general: In TR-FRET formats the signal depends on donor and acceptor labels being close together.
The next experiment deals with PDGFRβ (Rattus norvegicus (Rat), UniProt Q05030). The experiment can be described thus: PDGFRβ Cellular Assay (PDGFRb P-Y751 HTRF in A10 cells stimulated with PDGF-BB). The class given is cell-based. The gist of the method:
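Rat A10 cells, plated overnight, were treated with compound for 3 hours, then stimulated with PDGF-BB (working stock 100 ng/mL in 10% FBS medium). After lysis, PDGFRβ P-Y751 was detected by HTRF.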

The next experiment concerns the target VEGFR2, unphosphorylated (Homo sapiens (Human), UniProt P35968). The experiment in a line: VEGFR ADP GLO Assay. The class given is biochemical.

pIC50: −log10 of the molar value. Where two headings read alike, the source gives them in different places.

VEGFR2, unphosphorylated, sequence (P35968 20-1356): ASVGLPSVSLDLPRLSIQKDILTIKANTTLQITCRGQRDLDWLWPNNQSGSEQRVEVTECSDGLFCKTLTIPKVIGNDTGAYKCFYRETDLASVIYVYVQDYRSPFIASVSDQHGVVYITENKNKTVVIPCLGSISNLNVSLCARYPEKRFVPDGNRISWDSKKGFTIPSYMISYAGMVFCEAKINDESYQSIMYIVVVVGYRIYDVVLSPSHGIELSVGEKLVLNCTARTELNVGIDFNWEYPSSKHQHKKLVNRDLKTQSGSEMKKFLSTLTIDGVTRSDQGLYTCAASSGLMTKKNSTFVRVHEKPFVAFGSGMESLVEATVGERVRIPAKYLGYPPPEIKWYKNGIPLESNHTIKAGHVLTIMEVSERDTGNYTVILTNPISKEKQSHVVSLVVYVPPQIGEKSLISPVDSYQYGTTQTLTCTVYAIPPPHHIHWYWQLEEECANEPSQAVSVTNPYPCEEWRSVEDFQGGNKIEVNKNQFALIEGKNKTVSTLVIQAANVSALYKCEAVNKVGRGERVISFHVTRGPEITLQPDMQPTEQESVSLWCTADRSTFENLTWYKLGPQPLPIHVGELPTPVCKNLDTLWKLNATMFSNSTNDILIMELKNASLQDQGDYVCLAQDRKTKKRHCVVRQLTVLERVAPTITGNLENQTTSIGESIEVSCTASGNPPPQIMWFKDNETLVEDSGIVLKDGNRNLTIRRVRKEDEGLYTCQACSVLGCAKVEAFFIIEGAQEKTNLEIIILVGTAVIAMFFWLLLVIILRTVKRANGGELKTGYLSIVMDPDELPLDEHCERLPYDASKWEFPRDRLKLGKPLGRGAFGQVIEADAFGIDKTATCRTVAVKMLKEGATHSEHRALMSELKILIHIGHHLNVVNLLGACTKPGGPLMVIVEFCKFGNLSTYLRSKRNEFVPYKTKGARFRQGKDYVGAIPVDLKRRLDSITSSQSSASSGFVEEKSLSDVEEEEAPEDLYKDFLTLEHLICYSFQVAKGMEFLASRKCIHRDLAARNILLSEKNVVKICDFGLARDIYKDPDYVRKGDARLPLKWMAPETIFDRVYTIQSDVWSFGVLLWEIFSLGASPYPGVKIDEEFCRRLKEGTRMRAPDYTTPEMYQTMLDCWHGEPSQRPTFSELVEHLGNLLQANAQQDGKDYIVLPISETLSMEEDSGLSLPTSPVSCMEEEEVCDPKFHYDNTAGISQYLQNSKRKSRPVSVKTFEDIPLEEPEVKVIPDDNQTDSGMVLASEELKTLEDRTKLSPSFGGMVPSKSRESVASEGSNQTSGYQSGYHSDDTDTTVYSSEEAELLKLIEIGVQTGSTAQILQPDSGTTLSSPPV
Tb-labeled inactive PDGFRβ, sequence (P09619 33-1106): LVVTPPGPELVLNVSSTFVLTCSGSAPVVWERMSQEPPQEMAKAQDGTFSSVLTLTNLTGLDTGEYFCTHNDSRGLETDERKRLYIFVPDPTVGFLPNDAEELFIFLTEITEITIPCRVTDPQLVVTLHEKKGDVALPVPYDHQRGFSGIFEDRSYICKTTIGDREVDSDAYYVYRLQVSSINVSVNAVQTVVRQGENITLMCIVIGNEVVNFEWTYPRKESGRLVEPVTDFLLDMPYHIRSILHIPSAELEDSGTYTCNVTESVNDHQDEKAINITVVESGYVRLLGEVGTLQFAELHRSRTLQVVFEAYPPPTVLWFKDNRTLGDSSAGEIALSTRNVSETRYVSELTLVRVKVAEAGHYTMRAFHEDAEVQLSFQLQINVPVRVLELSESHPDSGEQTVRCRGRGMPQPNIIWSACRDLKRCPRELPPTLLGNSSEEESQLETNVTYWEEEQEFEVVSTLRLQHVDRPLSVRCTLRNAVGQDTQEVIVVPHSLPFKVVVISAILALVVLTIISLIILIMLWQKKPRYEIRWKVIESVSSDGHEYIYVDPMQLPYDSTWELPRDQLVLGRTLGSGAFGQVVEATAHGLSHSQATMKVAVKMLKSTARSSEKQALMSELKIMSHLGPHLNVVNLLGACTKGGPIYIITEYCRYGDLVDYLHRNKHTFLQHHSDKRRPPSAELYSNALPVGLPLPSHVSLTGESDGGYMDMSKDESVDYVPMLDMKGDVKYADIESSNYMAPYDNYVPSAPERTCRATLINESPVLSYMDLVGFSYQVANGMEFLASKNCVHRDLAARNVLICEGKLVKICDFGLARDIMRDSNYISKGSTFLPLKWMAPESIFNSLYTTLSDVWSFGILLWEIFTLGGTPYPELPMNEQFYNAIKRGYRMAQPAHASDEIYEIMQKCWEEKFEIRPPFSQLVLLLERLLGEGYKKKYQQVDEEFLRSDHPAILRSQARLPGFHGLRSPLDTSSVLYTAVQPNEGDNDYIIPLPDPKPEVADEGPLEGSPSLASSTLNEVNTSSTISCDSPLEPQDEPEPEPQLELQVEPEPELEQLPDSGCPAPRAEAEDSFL
PDGFRβ, sequence (Q05030 32-1097): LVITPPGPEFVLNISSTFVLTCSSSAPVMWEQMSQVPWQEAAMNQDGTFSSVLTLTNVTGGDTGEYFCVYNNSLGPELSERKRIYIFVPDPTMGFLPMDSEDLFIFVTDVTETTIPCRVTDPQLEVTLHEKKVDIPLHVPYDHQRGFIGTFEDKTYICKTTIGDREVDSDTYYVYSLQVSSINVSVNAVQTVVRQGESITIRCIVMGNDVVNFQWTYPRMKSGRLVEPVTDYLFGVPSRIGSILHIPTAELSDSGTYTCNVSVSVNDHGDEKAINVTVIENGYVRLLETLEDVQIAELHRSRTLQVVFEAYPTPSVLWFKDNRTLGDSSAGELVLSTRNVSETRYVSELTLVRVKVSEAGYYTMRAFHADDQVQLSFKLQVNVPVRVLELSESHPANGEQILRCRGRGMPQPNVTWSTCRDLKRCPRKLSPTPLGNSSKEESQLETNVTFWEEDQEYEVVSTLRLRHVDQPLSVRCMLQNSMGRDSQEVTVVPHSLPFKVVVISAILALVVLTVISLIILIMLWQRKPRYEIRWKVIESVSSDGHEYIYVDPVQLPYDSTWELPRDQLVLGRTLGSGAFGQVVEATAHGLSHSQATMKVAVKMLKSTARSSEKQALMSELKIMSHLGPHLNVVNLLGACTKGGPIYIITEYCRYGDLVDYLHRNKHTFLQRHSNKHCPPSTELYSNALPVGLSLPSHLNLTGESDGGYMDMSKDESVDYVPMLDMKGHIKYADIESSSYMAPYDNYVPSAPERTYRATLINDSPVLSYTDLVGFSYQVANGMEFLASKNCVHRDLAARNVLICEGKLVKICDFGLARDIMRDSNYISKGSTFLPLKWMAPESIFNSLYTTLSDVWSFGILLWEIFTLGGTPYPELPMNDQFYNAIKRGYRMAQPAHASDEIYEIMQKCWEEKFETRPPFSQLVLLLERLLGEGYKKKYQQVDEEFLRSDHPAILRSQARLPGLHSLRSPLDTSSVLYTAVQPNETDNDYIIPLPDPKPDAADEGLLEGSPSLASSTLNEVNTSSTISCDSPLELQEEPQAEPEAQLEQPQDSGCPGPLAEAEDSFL

As a reminder, the pIC50 is the negative decadic logarithm of the IC50, by convention in mol/L. Regarding `Cc1ncc(NC(=O)CN2CCc3c(cnn3C)C2)cc1NC(=O)c1cnn2cc(-c3cnn(C)c3)sc12` [Example 57, 2-(1-methyl-1H-pyrazol-4-yl)-N-(2-methyl-5-(2-(1-methyl-6,7-dihydro-1H-pyrazolo[4,3-c]pyridin-5 (4H)-yl)acetamido)pyridin-3-yl)pyrazolo[5,1-b]thiazole-7-carboxamide], the pIC50 in experiment [1] is 7.97; on PDGFRβ (read-out: PDGFR Cellular IC50), 6.91; at VEGFR2, unphosphorylated it was below 5.12.
Consider `Cc1ncc(NC(=O)CN2CCc3ncsc3C2)cc1NC(=O)c1cnn2cc(-c3cnn(C)c3)sc12` [Example 58, N-(5-(2-(6,7-dihydrothiazolo[5,4-c]pyridin-5 (4H)-yl)acetamido)-2-methylpyridin-3-yl)-2-(1-methyl-1H-pyrazol-4-yl)pyrazolo[5,1-b]thiazole-7-carboxamide], for which the pIC50 in experiment [1] is 7.90; on PDGFRβ (read-out: PDGFR Cellular IC50), 7.28; against VEGFR2, unphosphorylated, below 5.12.
In the same order, the values of `Cc1ncc(NC(=O)CN2CCS(=O)(=O)CC2)cc1NC(=O)c1cnn2cc(-c3cnn(C)c3)sc12` [Example 59, N-(5-(2-(1,1-dioxidothiomorpholino)acetamido)-2-methylpyridin-3-yl)-2-(1-methyl-1H-pyrazol-4-yl)pyrazolo[5,1-b]thiazole-7-carboxamide] are 7.03, below 5.52 and below 5.12.
The matching figures for `Cc1ncc(NC(=O)CN2CCc3cccnc3C2)cc1NC(=O)c1cnn2cc(-c3cnn(C)c3)sc12` [Example 60, N-(5-(2-(5,6-dihydro-1,7-naphthyridin-7 (8H)-yl)acetamido)-2-methylpyridin-3-yl)-2-(1-methyl-1H-pyrazol-4-yl)pyrazolo[5,1-b]thiazole-7-carboxamide]: 7.74, 7.30 and below 5.12.
In the same order, the values of `Cc1ncc(NC(=O)CN2CCc3scnc3C2)cc1NC(=O)c1cnn2cc(-c3cnn(C)c3)sc12` [Example 61, N-(5-(2-(6,7-dihydrothiazolo[4,5-c]pyridin-5 (4H)-yl)acetamido)-2-methylpyridin-3-yl)-2-(1-methyl-1H-pyrazol-4-yl)pyrazolo[5,1-b]thiazole-7-carboxamide] are 7.91, 7.36 and below 5.12.
Regarding `Cc1ncc(NC(=O)CN2CCc3cnccc3C2)cc1NC(=O)c1cnn2cc(-c3cnn(C)c3)sc12` [Example 62, N-(5-(2-(3,4-dihydro-2,6-naphthyridin-2 (1H)-yl)acetamido)-2-methylpyridin-3-yl)-2-(1-methyl-1H-pyrazol-4-yl)pyrazolo[5,1-b]thiazole-7-carboxamide], the pIC50 in experiment [1] is 7.75; at PDGFRβ (read-out: PDGFR Cellular IC50) it was 6.96; against VEGFR2, unphosphorylated it was below 5.12.
In the same order, the values of `Cc1ncc(NC(=O)CN2CCc3ncccc3C2)cc1NC(=O)c1cnn2cc(-c3cnn(C)c3)sc12` [Example 63, N-(5-(2-(7,8-dihydro-1,6-naphthyridin-6 (5H)-yl)acetamido)-2-methylpyridin-3-yl)-2-(1-methyl-1H-pyrazol-4-yl)pyrazolo[5,1-b]thiazole-7-carboxamide] are 7.37, 6.65 and below 5.12.
The matching figures for `Cc1ncc(NC(=O)CN2CCO[C@@H](C)C2)cc1NC(=O)c1cnn2cc(-c3cnn(C)c3)sc12` [Example 64, (S)-2-(1-methyl-1H-pyrazol-4-yl)-N-(2-methyl-5-(2-(2-methylmorpholino)acetamido)pyridin-3-yl)pyrazolo[5,1-b]thiazole-7-carboxamide]: 8.20, 8.07 and below 5.12.
The matching figures for `CC[C@@H]1CN(CC(=O)Nc2cnc(C)c(NC(=O)c3cnn4cc(-c5cnn(C)c5)sc34)c2)CCO1` [Example 65, (R)—N-(5-(2-(2-ethylmorpholino)acetamido)-2-methylpyridin-3-yl)-2-(1-methyl-1H-pyrazol-4-yl)pyrazolo[5,1-b]thiazole-7-carboxamide]: 7.78, 8.17 and below 5.12.
As for `CC[C@H]1CN(CC(=O)Nc2cnc(C)c(NC(=O)c3cnn4cc(-c5cnn(C)c5)sc34)c2)CCO1` [Example 66, (S)—N-(5-(2-(2-ethylmorpholino)acetamido)-2-methylpyridin-3-yl)-2-(1-methyl-1H-pyrazol-4-yl)pyrazolo[5,1-b]thiazole-7-carboxamide], the pIC50 is 8.59 in experiment [1]; 8.34 at PDGFRβ (read-out: PDGFR Cellular IC50); below 5.12 against VEGFR2, unphosphorylated.
In the same order, the values of `Cc1ncc(NC(=O)CN2CCOC(C)(C)C2)cc1NC(=O)c1cnn2cc(-c3cnn(C)c3)sc12` [Example 67, N-(5-(2-(2,2-dimethylmorpholino)acetamido)-2-methylpyridin-3-yl)-2-(1-methyl-1H-pyrazol-4-yl)pyrazolo[5,1-b]thiazole-7-carboxamide] are 8.24, 8.08 and below 5.12.
The matching figures for `Cc1ncc(NC(=O)CN2CCOCC2(C)C)cc1NC(=O)c1cnn2cc(-c3cnn(C)c3)sc12` [Example 68, N-(5-(2-(3,3-dimethylmorpholino)acetamido)-2-methylpyridin-3-yl)-2-(1-methyl-1H-pyrazol-4-yl)pyrazolo[5,1-b]thiazole-7-carboxamide]: 8.09, 7.72 and below 5.12.
For the molecule `CC[C@@H]1COCCN1CC(=O)Nc1cnc(C)c(NC(=O)c2cnn3cc(-c4cnn(C)c4)sc23)c1` [Example 69, (R)—N-(5-(2-(3-ethylmorpholino)acetamido)-2-methylpyridin-3-yl)-2-(1-methyl-1H-pyrazol-4-yl)pyrazolo[5,1-b]thiazole-7-carboxamide], the pIC50 in experiment [1] is 8.33; at PDGFRβ (read-out: PDGFR Cellular IC50), 7.92; against VEGFR2, unphosphorylated, below 5.12.
The matching figures for `CC[C@H]1COCCN1CC(=O)Nc1cnc(C)c(NC(=O)c2cnn3cc(-c4cnn(C)c4)sc23)c1` [Example 70, (S)—N-(5-(2-(3-ethylmorpholino)acetamido)-2-methylpyridin-3-yl)-2-(1-methyl-1H-pyrazol-4-yl)pyrazolo[5,1-b]thiazole-7-carboxamide]: 8.54, 8.19 and below 5.12.
In the same order, the values of `Cc1ncc(NC(=O)CN2[C@H](C)COC[C@@H]2C)cc1NC(=O)c1cnn2cc(-c3cnn(C)c3)sc12` [Example 71, N-(5-(2-((3S,5R)-3,5-dimethylmorpholino)acetamido)-2-methylpyridin-3-yl)-2-(1-methyl-1H-pyrazol-4-yl)pyrazolo[5,1-b]thiazole-7-carboxamide] are 7.32, 7.04 and below 5.12.
The matching figures for `Cc1ncc(NC(=O)CN2CCN(C)C(=O)C2)cc1NC(=O)c1cnn2cc(-c3cnn(C)c3)sc12` [Example 72, 2-(1-methyl-1H-pyrazol-4-yl)-N-(2-methyl-5-(2-(4-methyl-3-oxopiperazin-1-yl)acetamido)pyridin-3-yl)pyrazolo[5,1-b]thiazole-7-carboxamide]: 6.95, below 5.52 and below 5.12.
`Cc1ncc(NC(=O)CN2CCC(F)(F)C2)cc1NC(=O)c1cnn2cc(-c3cnn(C)c3)sc12` [Example 73, N-(5-(2-(3,3-difluoropyrrolidin-1-yl)acetamido)-2-methylpyridin-3-yl)-2-(1-methyl-1H-pyrazol-4-yl)pyrazolo[5,1-b]thiazole-7-carboxamide]: the pIC50 was 8.77 in experiment [1]; 8.49 at PDGFRβ (read-out: PDGFR Cellular IC50); below 5.12 on VEGFR2, unphosphorylated.
With `Cc1ncc(NC(=O)CN2CCOC[C@@H]2C)cc1NC(=O)c1cnn2cc(-c3cnn(C)c3)sc12` [Example 74, (S)-2-(1-methyl-1H-pyrazol-4-yl)-N-(2-methyl-5-(2-(3-methylmorpholino)acetamido)pyridin-3-yl)pyrazolo[5,1-b]thiazole-7-carboxamide], the pIC50 is 7.62 in experiment [1]; 7.38 against PDGFRβ (PDGFR Cellular IC50); below 5.12 at VEGFR2, unphosphorylated.
Turning to `Cc1ncc(NC(=O)CN2CCn3ccnc3C2)cc1NC(=O)c1cnn2cc(-c3cnn(C)c3)sc12` [Example 75, N-(5-(2-(5,6-dihydroimidazo[1,2-a]pyrazin-7 (8H)-yl)acetamido)-2-methylpyridin-3-yl)-2-(1-methyl-1H-pyrazol-4-yl)pyrazolo[5,1-b]thiazole-7-carboxamide], the pIC50 in experiment [1] was 7.33; on PDGFRβ (read-out: PDGFR Cellular IC50) it was 5.56; against VEGFR2, unphosphorylated, below 5.12.
In the same order, the values of `Cc1ncc(NC(=O)CN2Cc3ncsc3C2)cc1NC(=O)c1cnn2cc(-c3cnn(C)c3)sc12` [Example 76, N-(5-(2-(4H-pyrrolo[3,4-d]thiazol-5 (6H)-yl)acetamido)-2-methylpyridin-3-yl)-2-(1-methyl-1H-pyrazol-4-yl)pyrazolo[5,1-b]thiazole-7-carboxamide] are 8.05, 7.43 and below 5.12.
In the same order, the values of `Cc1ncc(NC(=O)CN2Cc3ccncc3C2)cc1NC(=O)c1cnn2cc(-c3cnn(C)c3)sc12` [Example 77, N-(5-(2-(1H-pyrrolo[3,4-c]pyridin-2 (3H)-yl)acetamido)-2-methylpyridin-3-yl)-2-(1-methyl-1H-pyrazol-4-yl)pyrazolo[5,1-b]thiazole-7-carboxamide] are 7.80, 7.10 and below 5.12.
In the same order, the values of `Cc1ncc(NC(=O)CN2CCOCC23CCC3)cc1NC(=O)c1cnn2cc(-c3cnn(C)c3)sc12` [Example 78, N-(5-(2-(8-oxa-5-azaspiro[3.5]nonan-5-yl)acetamido)-2-methylpyridin-3-yl)-2-(1-methyl-1H-pyrazol-4-yl)pyrazolo[5,1-b]thiazole-7-carboxamide] are 8.24, 7.92 and below 5.12.
